Results: patent US9428515B2, “Benzimidazole derivatives” (Boehringer Ingelheim International GmbH, priority 2014, dated 2016)

Target: T1, BRD4-BD1 (Homo sapiens, UniProt O60885)
T1 construct: 15 nM GST-BRD4-BD1 protein (aa 44-168)
Assay: BRD4-H4 tetraacetylated peptide inhibition AlphaScreen
Format: binding
Conditions: 15 nM GST-BRD4-BD1 (aa 44-168), 15 nM biotinylated Acetyl-Histone H4 (Lys5, 8, 12, 16) peptide, 30 min at RT
Experimental: Biological Methods BRD4-H4 Tetraacetylated Peptide Inhibition AlphaScreen
Compounds are diluted in serial dilution 1:5 in assay buffer from 10 mM stock in DMSO (100 μM start concentration) in white OptiPlate-384 (PerkinElmer). A mix consisting of 15 nM GST-BRD4-BD1 protein (aa 44-168) or 150 nM GST-BRD4-BD2 (aa 333-460) and 15 nM biotinylated Acetyl-Histone H4 (Lys5, 8, 12, 16) peptide is prepared in assay buffer (50 mM HEPES pH=7.4; 25 mM NaCl; 0.05% Tween 20; 0.1% bovine serum albumin (BSA); 10 mM dithiothreitol (DTT)). 6 μl of the mix is added to the compound dilutions. Subsequently, 6 μl of premixed AlphaLISA Glutathione Acceptor Beads and AlphaScreen Streptavidin Donor Beads from PerkinElmer (in assay buffer at a concentration of 10 μg/ml each) are added and the samples are incubated for 30 min at RT in the dark (shaking 300 rpm). Afterwards, the signal is measured in a PerkinElmer Envision HTS Multilabel Reader using the AlphaScreen protocol from PerkinElmer.
Each plate contains negative controls where biotinylated Acetyl-Histone H4 peptide and GST-BRD4-BD1 or GST-BRD4-BD2 are left out and replaced by assay buffer. Negative control values are entered as low basis value when using the software GraphPad Prism for calculations. Furthermore, a positive control (probe molecule JQ1+ with protein/peptide mix) is pipetted. Determination of IC50 values are carried out using GraphPad Prism 3.03 software (or updates thereof).

| SMILES | IC50 [nM] |
| --- | --- |
| COC[C@H](C)n1c(-c2cc(C)c(=O)n(C)c2)nc2cc3c(cc21)N(C)C(=O)C3(C)C [I-1, 2-(1,5-Dimethyl-6-oxo-1,6-dihydro-pyridin-3-yl)-3-((S)-2-methoxy-1-methyl-ethyl)-5,7,7-trimethyl-5,7-dihydro-3H-imidazo[4,5-f]indol-6-one] | 50 |
| Cc1cc(-c2nc3cc4c(cc3n2[C@@H](C)c2ccccc2)N(C(C)C)C(=O)C4(C)C)cn(C)c1=O [I-2, 2-(1,5-Dimethyl-6-oxo-1,6-dihydro-pyridin-3-yl)-5-isopropyl-7,7-dimethyl-3-((S)-1-phenyl-ethyl)-5,7-dihydro-3H-imidazo[4,5-f]indol-6-one] | 3 |
| Cc1cc(-c2nc3cc4c(cc3n2Cc2ccccn2)N(C)C(=O)C4(C)C)cn(C)c1=O [I-3] | 44 |
| COC[C@H](C)n1c(-c2cc(C)c(=O)n(C)c2)nc2cc3c(cc21)N(C(C)C)C(=O)C3(C)C [I-4] | 22 |
| Cc1nc(-c2nc3cc4c(cc3n2[C@@H](C)c2ccccc2)N(C(C)C)C(=O)C4(C)C)cn(C)c1=O [I-5] | 9 |
| Cc1nc(-c2nc3cc4c(cc3n2[C@@H](C)c2ccccc2)N(C)C(=O)C4(C)C)cn(C)c1=O [I-6] | 15 |
| Cc1cc(-c2nc3cc4c(cc3n2[C@@H](C)c2ccccc2)N(C)C(=O)C4(C)C)cn(C)c1=O [I-7] | 4 |
| CCN1C(=O)C(C)(C)c2cc3nc(-c4cc(C)c(=O)n(C)c4)n([C@@H](C)c4ccccc4)c3cc21 [I-8] | 2 |
| Cc1cc(-c2nc3cc4c(cc3n2[C@@H](C)c2ccccc2)N(C(C)C)C(=O)C42CC2)cn(C)c1=O [I-9] | 17 |
| Cc1cc(-c2nc3cc4c(cc3n2[C@@H](C)c2ccccc2)C(=O)N(C)C4(C)C)cn(C)c1=O [II-1] | 13 |
| Cc1cc(-c2nc3cc4c(C)nn(C)c4cc3n2[C@@H](C)c2ccccc2)cn(C)c1=O [III-1] | 5 |
| CCn1nc(C)c2cc3nc(-c4cc(C)c(=O)n(C)c4)n([C@@H](C)c4ccccc4)c3cc21 [III-2] | 8 |
| CCc1nn(C)c2cc3c(cc12)nc(-c1cc(C)c(=O)n(C)c1)n3[C@@H](C)c1ccccc1 [III-3] | 9 |
